Test results taken from patent US20240262795A1, “PYRAZINE COMPOUNDS AS INHIBITORS OF FLT3” (Biomea Fusion, Inc., priority 2021, published 2024).

How the values were obtained:
Type in all cases: cell-based, human
MOLM-13 = assay: Proliferation inhibition, CellTiter-Glo, MOLM-13; conditions: Homo sapiens, 96 h; MOLM-13 cells, IC50 (4 days), CellTiter-Glo; read-out: MOLM-13 IC50
Description: (§1) The proliferation inhibitory effect was investigated in human AML cell lines MOLM-13 (AddexBio: C0003003) and MV-4-11 (ATCC: CRL-9591), and CML cell line […] (ATCC: CRL-3343). Molm-13 is heterozygous for FLT3-ITD mutation, while MV4-11 is homozygous for FLT3-ITD (Quentmeier H, et al., Leukemia. 17(1):120-4). […] Cells were maintained in RPMI-1640 medium (ThermoFisher catalog no. 61870036) supplemented with 10% of Heat Inactivated FBS (ThermoFisher catalog no. A31605) and 1% Pen-Strep (ThermoFisher catalog no. 10378016) and cultured at 37° C. in a humidified incubator with 5% CO2. Cell lines were grown by […], and the cells were maintained in a range 70%-80% confluency.
(§2) ATP is present in all metabolically active cells and is considered as a marker for cell viability and proliferation. Metabolic cell activity was determined using the CellTiter-Glo kit (Promega catalog no. G7572), an ATP monitoring system based on the production of luminescence by the reaction of ATP with added UltraGlo® recombinant luciferase (Kawano et al., 2016, PLOS One, 8; 11(7):e0158888), according to the supplier's experimental recommendations. The assay was based on a 96 well plate format.
(§3) Test compounds were dissolved at 10 mM in DMSO (Sigma catalog no. D8418; purity≥99.9%) and stored at −20° C. Eight concentrations of test compound were assessed in duplicate in an individual test occasion in parallel in the selected cell lines. Gilteratinib and FF-10101 were used as reference compounds and tested in duplicate at eight concentrations. 100% of proliferation is represented by the untreated cells (0.2% DMSO).
(§4) On the day of the experiment, cells were quantified with the cell viability analyzer NucleoCounter (Chemometec NC-200) and diluted with fresh medium to obtain the cell density of about 10,000 cells per 200 μL medium. 200 μL of cell suspension were added into wells in the 96 well plate.
(§5) After 2 hours from seeding cells, compounds at desired concentrations were added using a D300e compound dispenser (Life Sciences Tecan D300) with shaking between each compound dispensed. Assay plates were incubated at 37° C. in a humidified incubator with 5% CO2.
(§6) On day 4 (˜96 hrs after compound addition) assay plates were equilibrated at room temperature for approximately 15 min, and then 40 μL/well of the Promega CellTiterGlo® reagent was added. Contents were mixed for 5 min on an orbital shaker to promote cell lysis, and then incubated at room temperature for an additional 10 min in the dark to stabilize the luminescent signal. Luminescence was read by using a GloMlax GM300 plate reader (Promega) using the luminescence for 96 well plate standard protocol.
(§7) Results were analyzed by GraphPad (Prism) and IC50 values were calculated by non-linear regression using four parameter-logistic equation.

MV-4-11 = assay: Proliferation inhibition, CellTiter-Glo, MV-4-11; conditions: Homo sapiens, MV4-11, 96 h; MV-4:11 cells, IC50 (4 days), CellTiter-Glo; read-out: MV-4:11 IC50
Description: as §1, §2, §3, §4, §5, §6, §7

K-562 = assay: Proliferation inhibition, CellTiter-Glo, K-562; conditions: Homo sapiens, K562, 96 h; K-562 cells, IC50 (4 days), CellTiter-Glo; read-out: K-562 IC50
Description: as §1, §2, §3, §4, §5, §6, §7

`[2H]C([2H])([2H])N(C/C=C/C(=O)N(C)[C@@H](C)C(=O)NCCc1cccc(Nc2nc(C3CC3)c(C)nc2C(N)=O)c1)C([2H])([2H])[2H]` [Compound 248, (S,E)-3-((3-(2-(2-(4-(bis(methyl-d3)amino)-N-methylbut-2-enamido)propanamido)ethyl)phenyl)amino)-5-cyclopropyl-6-methylpyrazine-2-carboxamide] gave an IC50 (MOLM-13) of 1 to 10 nM, an IC50 (MV-4-11) of 1 to 10 nM and an IC50 (K-562) greater than 500 nM.

With `CCc1cc(C(N)=O)c(Nc2cccc(CCNC(=O)[C@H](C)N(C)C(=O)/C=C/CN(C)C)c2)nc1C1CC1` [Compound 316, 6-cyclopropyl-2-[3-[2-[[(2S)-2-[[(E)-4-(dimethylamino)but-2-enoyl]-methyl-amino]propanoyl]amino]ethyl]anilino]-5-ethyl-pyridine-3-carboxamide] the IC50 (MOLM-13) was 100 to 500 nM, the IC50 (MV-4-11) was 10 to 100 nM and the IC50 (K-562) was greater than 500 nM.

In the case of `CCc1nc(C(N)=O)c(Nc2cccc(CCNC(=O)[C@H](C)N(C)C(=O)/C=C/CN(C)C)c2)nc1C` [Compound 142A, (S,E)-3-((3-(2-(2-(4-(dimethylamino)-N-methylbut-2-enamido)propanamido)ethyl)phenyl)amino)-6-ethyl-5-methylpyrazine-2-carboxamide], the IC50 (MOLM-13) is reported as 1 to 10 nM, the IC50 (MV-4-11) is reported as 1 to 10 nM and the IC50 (K-562) is reported as greater than 500 nM.

Work on `CC#CC(=O)N(C)[C@@H](C)C(=O)NCCc1cccc(Nc2nc(N(C)C)c(CC)nc2C(N)=O)c1` [Compound 160, 3-[3-[2-[[(2S)-2-[but-2-ynoyl(methyl)amino]propanoyl]amino]ethyl]anilino]-5-(dimethylamino)-6-ethyl-pyrazine-2-carboxamide] yielded an IC50 (MOLM-13) of 10 to 100 nM, an IC50 (MV-4-11) of 1 to 10 nM and an IC50 (K-562) greater than 500 nM.

With `CCc1nc(C(N)=O)c(Nc2cccc(CCNC(=O)[C@H](C)N(C)C(=O)/C=C/CN3CC(F)C3)c2)nc1C` [Compound 240, 6-ethyl-3-[3-[2-[[(2S)-2-[[(E)-4-(3-fluoroazetidin-1-yl)but-2-enoyl]-methyl-amino]propanoyl]amino]ethyl]anilino]-5-methyl-pyrazine-2-carboxamide] the IC50 (MOLM-13) was greater than 500 nM, the IC50 (MV-4-11) was 10 to 100 nM and the IC50 (K-562) was greater than 500 nM.

Compound `CCc1nc(C(N)=O)c(Nc2ccnc(CCNC(=O)CN(C)C(=O)/C=C/CN3CCC3)c2)nc1CC(C)C` [Compound 604, (E)-3-((2-(2-(2-(4-(azetidin-1-yl)-N-methylbut-2-enamido)acetamido)ethyl)pyridin-4-yl)amino)-6-ethyl-5-isobutylpyrazine-2-carboxamide] has an IC50 (MOLM-13) of 1 to 10 nM, an IC50 (MV-4-11) of less than 1 nM and an IC50 (K-562) greater than 500 nM.

`Cc1nc(C(N)=O)c(Nc2cccc(CCNC(=O)[C@H](C)N(C)C(=O)/C=C/CN3CCC3)c2)nc1N(C)C` [Compound 230, (S,E)-3-((3-(2-(2-(4-(azetidin-1-yl)-N-methylbut-2-enamido)propanamido)ethyl)phenyl)amino)-5-(dimethylamino)-6-methylpyrazine-2-carboxamide] was tested, and the IC50 (MOLM-13) was 1 to 10 nM, the IC50 (MV-4-11) was less than 1 nM and the IC50 (K-562) was greater than 500 nM.

Compound `CCc1nc(C(N)=O)c(Nc2cc(CCNC(=O)[C@H](C)N(C)C(=O)/C=C/CN(C)C)ccn2)nc1C1CC1` [Compound 304, 5-cyclopropyl-3-[[4-[2-[[(2S)-2-[[(E)-4-(dimethylamino)but-2-enoyl]-methyl-amino]propanoyl]amino]ethyl]-2-pyridyl]amino]-6-ethyl-pyrazine-2-carboxamide] has an IC50 (MOLM-13) of 100 to 500 nM, an IC50 (MV-4-11) of 100 to 500 nM and an IC50 (K-562) greater than 500 nM.

In the case of `CCc1nc(C(N)=O)c(Nc2cccc(C[C@@H](C)NC(=O)[C@H](C)N(C)C(=O)/C=C/CN(C)C)c2)nc1C` [Compound 314, 3-[3-[(2R)-2-[[(2S)-2-[[(E)-4-(dimethylamino)but-2-enoyl]-methyl-amino]propanoyl]amino]propyl]anilino]-6-ethyl-5-methyl-pyrazine-2-carboxamide], the IC50 (MOLM-13) is reported as 100 to 500 nM, the IC50 (MV-4-11) is reported as 10 to 100 nM and the IC50 (K-562) is reported as greater than 500 nM.

With `CCc1nc(C(N)=O)c(Nc2cccc(CCNC(=O)CN(C)C(=O)/C=C/CN(C)C)c2)nc1C` [Compound 226, (E)-3-((3-(2-(2-(4-(dimethylamino)-N-methylbut-2-enamido)acetamido)ethyl)phenyl)amino)-6-ethyl-5-methylpyrazine-2-carboxamide] the IC50 (MOLM-13) was 1 to 10 nM, the IC50 (MV-4-11) was less than 1 nM and the IC50 (K-562) was greater than 500 nM.

Work on `CCc1nc(C(N)=O)c(Nc2cccc(C[C@@H](C)NC(=O)CN(C)C(=O)/C=C/CN(C)C)c2)nc1C` [Compound 311, 3-[3-[(2R)-2-[[2-[[(E)-4-(dimethylamino)but-2-enoyl]-methyl-amino]acetyl]amino]propyl]anilino]-6-ethyl-5-methyl-pyrazine-2-carboxamide] yielded an IC50 (MOLM-13) of 100 to 500 nM, an IC50 (MV-4-11) of 10 to 100 nM and an IC50 (K-562) greater than 500 nM.

In the case of `CCc1nc(Nc2cccc(CCNC(=O)[C@H](C)N(C)C(=O)/C=C/CN(C)C)c2)c(C(N)=O)nc1CC` [Compound 243, (S,E)-3-((3-(2-(2-(4-(dimethylamino)-N-methylbut-2-enamido)propanamido)ethyl)phenyl)amino)-5,6-diethylpyrazine-2-carboxamide], the IC50 (MOLM-13) is reported as 1 to 10 nM, the IC50 (MV-4-11) is reported as less than 1 nM and the IC50 (K-562) is reported as greater than 500 nM.

`CCc1nc(C(N)=O)c(Nc2cccc(CCNC(=O)[C@H](C)N(C)C(=O)/C=C/CNC)c2)nc1C1CC1` [Compound 224, (S,E)-5-cyclopropyl-6-ethyl-3-((3-(2-(2-(N-methyl-4-(methylamino)but-2-enamido)propanamido)ethyl)phenyl)amino)pyrazine-2-carboxamide] gave an IC50 (MOLM-13) of 1 to 10 nM, an IC50 (MV-4-11) of less than 1 nM and an IC50 (K-562) greater than 500 nM.

With `CCc1nc(C(N)=O)c(Nc2cccc([C@@H](C)CNC(=O)[C@H](C)N(C)C(=O)/C=C/CN(C)C)c2)nc1C` [Compound 326, 3-((3-((R)-1-((S)-2-((E)-4-(dimethylamino)-N-methylbut-2-enamido)propanamido)propan-2-yl)phenyl)amino)-6-ethyl-5-methylpyrazine-2-carboxamide] the IC50 (MOLM-13) was greater than 500 nM, the IC50 (MV-4-11) was greater than 500 nM and the IC50 (K-562) was greater than 500 nM.

Work on `C=CC(=O)N(C)CC(=O)NC[C@H](C)c1cccc(Nc2nc(CC(C)C)c(CC)nc2C(N)=O)c1` [Compound 512, (R)-6-ethyl-5-isobutyl-3-((3-(1-(2-(N-methylacrylamido)acetamido)propan-2-yl)phenyl)amino) pyrazine-2-carboxamide] yielded an IC50 (MOLM-13) greater than 500 nM, an IC50 (MV-4-11) of 10 to 100 nM and an IC50 (K-562) greater than 500 nM.

`CCc1nc(C(N)=O)c(Nc2cccc(CCNC(=O)[C@H](C)N(C)C(=O)C#CCN(C)C)c2)nc1C` [Compound 244, (S)-3-((3-(2-(2-(4-(dimethylamino)-N-methylbut-2-ynamido)propanamido)ethyl)phenyl)amino)-6-ethyl-5-methylpyrazine-2-carboxamide] gave an IC50 (MOLM-13) of 1 to 10 nM, an IC50 (MV-4-11) of less than 1 nM and an IC50 (K-562) greater than 500 nM.

With `C=CC(=O)N(C)[C@@H](C)C(=O)NCCc1cccc(Nc2nc(C3CC3)c(C)nc2C(N)=O)c1` [Compound 222, 5-cyclopropyl-6-methyl-3-[3-[2-[[(2S)-2-[methyl(prop-2-enoyl)amino]propanoyl]amino]ethyl]anilino]pyrazine-2-carboxamide] the IC50 (MOLM-13) was 10 to 100 nM, the IC50 (MV-4-11) was 10 to 100 nM and the IC50 (K-562) was greater than 500 nM.

With `C=CC(=O)N(C)[C@@H](C)C(=O)NCCc1cccc(Nc2nc(N(C)C)c(C)nc2C(N)=O)c1` [Compound 218, 5-(dimethylamino)-6-methyl-3-[3-[2-[[(2S)-2-[methyl(prop-2-enoyl)amino]propanoyl]amino]ethyl]anilino]pyrazine-2-carboxamide] the IC50 (MOLM-13) was 10 to 100 nM, the IC50 (MV-4-11) was 1 to 10 nM and the IC50 (K-562) was greater than 500 nM.

`Cc1nc(C(N)=O)c(Nc2cccc(CCNC(=O)[C@H](C)N(C)C(=O)/C=C/CN(C)C)c2)nc1C1CC1` [Compound 228, (S,E)-5-cyclopropyl-3-((3-(2-(2-(4-(dimethylamino)-N-methylbut-2-enamido)propanamido)ethyl)phenyl)amino)-6-methylpyrazine-2-carboxamide] showed an IC50 (MOLM-13) of 1 to 10 nM, an IC50 (MV-4-11) of 1 to 10 nM and an IC50 (K-562) greater than 500 nM.
